Results from patent US20160002226A1, “PYRI[…] AND THEIR USE IN THE TREATMENT, AMELIORATION OR PREVENTION OF INFLUENZA” (F. Hoffmann-La Roche AG, priority 2014, published 2016).

Key:
[1] = molecular target: T1, influenza A virus (IAV) PA-Nter fragment (amino acids 1-209) (Influenza A virus, UniProt P31343); assay: FRET endonuclease activity assay; format: biochemical; conditions: PA-Nter 0.5 μM, 1.6 μM RNA substrate
T1 construct: PA-Nter fragment (amino acids 1-209); made in house

[2] = test system: influenza A virus A/Aichi/2/68 (H3N2) on MDCK cells; assay: Cytopathic effect (CPE) assay; format: cell-based; conditions: for IC50: Influenza A virus, 48 hrs; for CPE (% CPE reduction): @ 50 μM
[3] = molecular target: whole RNP complex of IAV strain A/PR/8/34 (Influenza A virus, UniProt P03433); assay: Transcription assay (TA assay); format: biochemical; conditions: RNPs of A/PR/8/34, capped RNA substrate

SMILES	IC50 ([2]; the 2nd table) [µM]	IC50 [3] [µM]	further results
CC(C)N1CCn2c(CNC(=O)c3cccn3C)cc(=O)c(O)c2C1=O	–	–	IC50 [1]: 0.31 µM; IC50 ([2]; the 1st table): > 50 µM
CC(C)N1CCn2c(CN(Cc3ccccc3)C(=O)C3CC(F)(F)C3)cc(=O)c(O)c2C1=O	> 50	2.98	–
CC(C)N1CCn2c(CN(Cc3cccc4ccccc34)C(=O)C3CC(F)(F)C3)cc(=O)c(O)c2C1=O	> 50	0.253	–
CC(C)N1CCn2c(CN(Cc3ccccc3-c3ccccc3)C(=O)C3CC(F)(F)C3)cc(=O)c(O)c2C1=O	> 50	0.229	–
CC(C)N1CCn2c(CNCc3ccccc3-c3ccccc3)cc(=O)c(O)c2C1=O	> 50	0.535	–
CC(C)N1CCn2c(CN(C)Cc3ccc(Cl)cc3)cc(=O)c(O)c2C1=O	> 50	2.11	–
CC(C)N1CCn2c(CN(C)Cc3ccccc3)cc(=O)c(O)c2C1=O	> 50	0.804	–
CCN(Cc1ccccc1)Cc1cc(=O)c(O)c2n1CCN(C(C)C)C2=O	> 50	1.56	–
CCN(Cc1ccc(Cl)cc1)Cc1cc(=O)c(O)c2n1CCN(C(C)C)C2=O.O=C(O)C(F)(F)F	–	0.682	CPE (% CPE reduction) [2]: 18% @ 50 μM
CC(C)N1CCn2c(CN(C)Cc3cccc(Cl)c3)cc(=O)c(O)c2C1=O.O=C(O)C(F)(F)F	–	0.081	CPE (% CPE reduction) [2]: 30.8% @ 50 μM
CCCN(Cc1cccc2ccccc12)Cc1cc(=O)c(O)c2n1CCN(C(C)C)C2=O	> 50	1.02	–
CCCN(Cc1ccccc1-c1ccccc1)Cc1cc(=O)c(O)c2n1CCN(C(C)C)C2=O.O=C(O)C(F)(F)F	> 50	–	TA IC50 [3]: in- soluble
CCCN(Cc1cccc(-c2ccccc2)c1)Cc1cc(=O)c(O)c2n1CCN(C(C)C)C2=O	> 50	0.69	–
CCCN(Cc1ccc(-c2ccccc2)cc1)Cc1cc(=O)c(O)c2n1CCN(C(C)C)C2=O	> 50	63.8	–
CC(C)N1CCn2c(CN(Cc3cccc(-c4ccccc4)c3)C3CC3)cc(=O)c(O)c2C1=O	> 50	0.533	–
CC(C)N1CCn2c(CN(Cc3ccc(-c4ccccc4)cc3)C3CC3)cc(=O)c(O)c2C1=O	> 50	5.31	–
CC(C)N1CCn2c(CN(C)Cc3ccc(-c4ccccc4)cc3)cc(=O)c(O)c2C1=O	> 50	11.7	–
CC(C)N1CCn2c(CN(Cc3cccc(Cl)c3)C3CC3)cc(=O)c(O)c2C1=O	> 50	0.171	–
CCN(Cc1cccc2ccccc12)Cc1cc(=O)c(O)c2n1CCN(C(C)C)C2=O	> 50	0.22	–
CCCN(Cc1cc(=O)c(O)c2n1CCN(C(C)C)C2=O)C1(c2ccccc2)CCCC1	> 50	0.87	–
CCCN(Cc1cc(=O)c(O)c2n1CCN(C(C)C)C2=O)CC1(c2ccccc2)CCCC1	> 50	0.452	–
